Target: STING (Homo sapiens, UniProt Q86WV6, G230A/H232R/R293Q/R71H)
Assay: STING reporter assay in THP1-Dual KO-IFNAR2 cells (2′3′cGAMP stimulation, luciferase reporter)
Format: cell-based
Conditions: 15 μM 2′3′cGAMP stimulation, 24 h, read-out: Pharmaron, THP1_IFNAR2 STING 24 h Luci Normalized: GeoMean EC50
Procedure, shortened: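 EC50 from secreted luciferase (QUANTI-Luc Plus luminescence of supernatant) after 24 h at 37 °C, 5% CO2. Cells: THP1-Dual KO-IFNAR2, treated with compound (0.0017-100 μM final) plus lipofected 2′3′cGAMP at 15 μM final.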

Sequence of STING (Q86WV6 whole entry R71H/G230A/H232R/R293Q): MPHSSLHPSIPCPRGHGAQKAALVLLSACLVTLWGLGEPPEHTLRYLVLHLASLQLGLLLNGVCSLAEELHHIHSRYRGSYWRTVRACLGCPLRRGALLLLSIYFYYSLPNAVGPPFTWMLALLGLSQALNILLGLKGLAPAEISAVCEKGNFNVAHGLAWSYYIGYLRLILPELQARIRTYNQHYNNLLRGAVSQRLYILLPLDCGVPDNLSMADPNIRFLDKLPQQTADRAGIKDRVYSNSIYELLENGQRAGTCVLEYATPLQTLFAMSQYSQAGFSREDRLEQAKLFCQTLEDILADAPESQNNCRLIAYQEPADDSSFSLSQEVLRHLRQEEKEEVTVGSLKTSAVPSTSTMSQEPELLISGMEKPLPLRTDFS

| Compound | EC50 [nM] |
| --- | --- |
| O=C(Nc1c[nH]c2ccc(O[C@H]3C[C@@H](c4ccc(C(F)(F)F)cc4)C3)cc12)C1(CO)CCC1 [Compound 420, 1-(hydroxymethyl)-N-(5-(cis-3-(4-(trifluoromethyl)phenyl)cyclobutoxy)-1H-indol-3-yl)cyclobutane-1-carboxamide] | 200 to 1000 |
| COCCOCC(=O)Nc1c[nH]c2ccc(OCc3ccc(C(F)(F)F)cc3)cc12 [Compound 404, 2-(2-methoxyethoxy)-N-(5-((4-(trifluoromethyl)benzyl)oxy)-1H-indol-3-yl)acetamide] | 1000 to 5000 |
| CC(=O)Nc1c[nH]c2ccc(O[C@@H]3C[C@@H](c4ccc(C(F)(F)F)cc4)[C@@H]3C)cc12 [Compound 448, N-(5-((1R,2S,3R)-2-methyl-3-(4-(trifluoromethyl)phenyl)cyclobutoxy)-1H-indol-3-yl)acetamide] | 40 to 200 |
| CC(=O)Nc1c[nH]c2ccc(O[C@H]3C[C@H](c4ccc(C(F)(F)F)cc4C)C3)cc12 [Compound 435, N-(5-(trans-3-(2-methyl-4-(trifluoromethyl)phenyl)cyclobutoxy)-1H-indol-3-yl)acetamide] | 40 to 200 |
| O=C(Nc1c[nH]c2ccc(O[C@H]3C[C@H](c4ccc(C(F)(F)F)cc4)C3)cc12)C1CC1(F)F (stereo partly drawn) [Compound 574, 2,2-difluoro-N-(5-(trans-3-(4-(trifluoromethyl)phenyl)cyclobutoxy)-1H-indol-3-yl)cyclopropane-1-carboxamide] | 40 to 200 |
| O=C(Nc1c[nH]c2ccc(O[C@H]3C[C@H](c4ccc(C(F)(F)F)cc4)C3)cc12)C1CC1(F)Cl (stereo partly drawn) [Compound 571, 2-chloro-2-fluoro-N-(5-(trans-3-(4-(trifluoromethyl)phenyl)cyclobutoxy)-1H-indol-3-yl)cyclopropane-1-carboxamide] | 200 to 1000 |
| CC(=O)Nc1c[nH]c2ccc(CCOc3cccnc3C(F)(F)F)cc12 [Compound 541, N-(5-(2-((2-(trifluoromethyl)pyridin-3-yl)oxy)ethyl)-1H-indol-3-yl)acetamide] | 5000 to 100000 |
| O=C(Nc1c[nH]c2ccc(CCCn3cc(C(F)(F)F)cn3)cc12)C1CC1 [Compound 384, N-(5-(3-(4-(trifluoromethyl)-1H-pyrazol-1-yl)propyl)-1H-indol-3-yl)cyclopropanecarboxamide] | 200 to 1000 |
| O=C(CC(O)C(F)(F)F)Nc1c[nH]c2ccc(OCC[C@@H]3C[C@@H]4CN(CC(F)(F)F)C[C@@H]4C3)cc12 (stereo partly drawn) [Compound 433, 4,4,4-trifluoro-3-hydroxy-N-(5-(2-((3aR,5r,6aS)-2-(2,2,2-trifluoroethyl)octahydrocyclopenta[c]pyrrol-5-yl)ethoxy)-1H-indol-3-yl)butanamide] | 200 to 1000 |
| O=C(Nc1c[nH]c2ccc(OCC[C@@H]3C[C@@H]4CN(CC(F)(F)F)C[C@@H]4C3)cc12)C1CCOCC1 [Compound 152, N-(5-{2-[(3aR,5S,6aS)-2-(2,2,2-trifluoroethyl)-octahydrocyclopenta[c]pyrrol-5-yl]ethoxy}-1H-indol-3-yl)oxane-4-carboxamide] | 200 to 1000 |
| CC1(C(=O)Nc2c[nH]c3ccc(OCc4ccc(C(F)(F)F)cc4)cc23)CCOC1 (stereo not shown) [Compound 154, 3-methyl-N-(5-((4-(trifluoromethyl)benzyl)oxy)-1H-indol-3-yl)tetrahydrofuran-3-carboxamide] | 200 to 1000 |
| CC1(C(=O)Nc2c[nH]c3ccc(OCc4ccc(C(F)(F)F)cc4)cc23)CN(CC(F)F)C1 [Compound 421, 1-(2,2-difluoroethyl)-3-methyl-N-(5-((4-(trifluoromethyl)benzyl)oxy)-1H-indol-3-yl)azetidine-3-carboxamide] | 200 to 1000 |
| CC1(C(=O)Nc2c[nH]c3ccc(O[C@H]4C[C@H](c5ccc(C(F)(F)F)cc5)C4)cc23)CC1 [Compound 261, 1-methyl-N-(5-(trans-3-(4-(trifluoromethyl)phenyl)cyclobutoxy)-1H-indol-3-yl)cyclopropane-1-carboxamide] | 40 to 200 |
| C[C@]1(C(=O)Nc2c[nH]c3ccc(OCc4ccc(C(F)(F)F)cc4)cc23)CC[C@H](O)CC1 [Compound 418, trans-4-hydroxy-1-methyl-N-(5-((4-(trifluoromethyl)benzyl)oxy)-1H-indol-3-yl)cyclohexane-1-carboxamide] | 200 to 1000 |
| CC(=O)Nc1c[nH]c2ccc(CCOc3ccccc3OCC(F)(F)F)cc12 [Compound 547, N-(5-(2-(2-(2,2,2-trifluoroethoxy)phenoxy)ethyl)-1H-indol-3-yl)acetamide] | 200 to 1000 |
| CC1(C(=O)Nc2c[nH]c3ccc(OCc4ccc(C(F)(F)F)cc4)cc23)CCOCC1 [Compound 328, 4-methyl-N-(5-((4-(trifluoromethyl)benzyl)oxy)-1H-indol-3-yl)tetrahydro-2H-pyran-4-carboxamide] | 200 to 1000 |
| C[C@H]1OC[C@H]1C(=O)Nc1c[nH]c2ccc(OCC[C@@H]3C[C@@H]4CN(CC(F)(F)F)C[C@@H]4C3)cc12 [Compound 510, (2R,3R)-2-methyl-N-(5-(2-((3aR,5r,6aS)-2-(2,2,2-trifluoroethyl)octahydrocyclopenta[c]pyrrol-5-yl)ethoxy)-1H-indol-3-yl)oxetane-3-carboxamide] | 200 to 1000 |
| O=C(Nc1c[nH]c2ccc(OCCc3ccc(C(F)(F)F)cc3)cc12)[C@H]1C[C@@H](O)C1 [Compound 190, (1S,3S)-3-hydroxy-N-(5-(4-(trifluoromethyl)phenethoxy)-1H-indol-3-yl)cyclobutanecarboxamide] | 200 to 1000 |
| CC(=O)Nc1c[nH]c2ccc(OCC[C@H]3CC[C@](O)(C(F)(F)F)CC3)cc12 [Compound 501, N-(5-(2-(cis-4-hydroxy-4-(trifluoromethyl)cyclohexyl)ethoxy)-1H-indol-3-yl)acetamide] | 1000 to 5000 |
| C[C@H]1C[C@@H](C(=O)Nc2c[nH]c3ccc(OCc4ccc(C(F)(F)F)cc4)cc23)C1 [Compound 321, cis-3-methyl-N-(5-((4-(trifluoromethyl)benzyl)oxy)-1H-indol-3-yl)cyclobutane-1-carboxamide] | 200 to 1000 |
| CC1(C(=O)Nc2c[nH]c3ccc(O[C@H]4C[C@H](c5ccc(C(F)(F)F)cc5)C4)cc23)CCOCC1 [Compound 488, 4-methyl-N-{5-[(1R,3R)-3-[4-(trifluoromethyl)phenyl]cyclobutoxy]-1H-indol-3-yl}oxane-4-carboxamide] | 40 to 200 |
| N#CC1(C(=O)Nc2c[nH]c3ccc(OCCc4ccc(C(F)(F)F)cc4)cc23)CC1 [Compound 193, 1-cyano-N-(5-(4-(trifluoromethyl)phenethoxy)-1H-indol-3-yl)cyclopropane-1-carboxamide] | 200 to 1000 |
| CC(=O)Nc1c[nH]c2ccc(C#Cc3ccc(C(F)(F)F)cc3)cc12 [Compound 495, N-(5-((4-(trifluoromethyl)phenyl)ethynyl)-1H-indol-3-yl)acetamide] | 1000 to 5000 |

More lines, now with the values ahead:

| EC50 [nM] | Compound |
| --- | --- |
| 200 to 1000 | CC(C)(C)C(=O)Nc1c[nH]c2ccc(OCC[C@@H]3C[C@@H]4CN(CC(F)(F)F)C[C@@H]4C3)cc12 [Compound 367, N-(5-(2-((3aR,5r,6aS)-2-(2,2,2-trifluoroethyl)octahydrocyclopenta[c]pyrrol-5-yl)ethoxy)-1H-indol-3-yl)pivalamide] |
| 200 to 1000 | O=C(Nc1c[nH]c2ccc(OCCc3ccc(C(F)(F)F)cc3)cc12)C1CC(F)(F)C1 [Compound 249, 3,3-difluoro-N-(5-(4-(trifluoromethyl)phenethoxy)-1H-indol-3-yl)cyclobutane-1-carboxamide] |
| 200 to 1000 | CC(=O)Nc1c[nH]c2ccc(CCOc3ccc(Cl)c(Cl)c3)cc12 [Compound 214, N-(5-(2-(3,4-dichlorophenoxy)ethyl)-1H-indol-3-yl)acetamide] |
| 40 to 200 | CC1(C(=O)Nc2c[nH]c3ccc(OCCc4ccc(C(F)(F)F)cc4)cc23)CN(CC(F)F)C1 [Compound 561, 1-(2,2-difluoroethyl)-3-methyl-N-(5-(4-(trifluoromethyl)phenethoxy)-1H-indol-3-yl)azetidine-3-carboxamide] |
| 200 to 1000 | CC(C)(C)OC(=O)N1CCC(CCOc2ccc3[nH]cc(NC(=O)C4CCC4)c3c2)CC1 [Compound 140, tert-butyl 4-(2-((3-(cyclobutanecarboxamido)-1H-indol-5-yl)oxy)ethyl)piperidine-1-carboxylate] |
| 40 to 200 | C[C@]1(C(=O)Nc2c[nH]c3ccc(OCCc4ccc(C(F)(F)F)cc4)cc23)C[C@H](CO)C1 [Compound 530, trans-3-(hydroxymethyl)-1-methyl-N-(5-(4-(trifluoromethyl)phenethoxy)-1H-indol-3-yl)cyclobutane-1-carboxamide] |
| 200 to 1000 | C[C@]1(C(=O)Nc2c[nH]c3ccc(OCc4ccc(C(F)(F)F)cc4)cc23)CC[C@@H](O)CC1 [Compound 419, trans-4-hydroxy-1-methyl-N-(5-((4-(trifluoromethyl)benzyl)oxy)-1H-indol-3-yl)cyclohexane-1-carboxamide] |
| 200 to 1000 | O=C(Nc1c[nH]c2ccc(CC(O)Cc3ccc(C(F)(F)F)cc3)cc12)C1CC1 (single isomer, unassigned) [Compound 201, N-(5-(2-hydroxy-3-(4-(trifluoromethyl)phenyl)propyl)-1H-indol-3-yl)cyclopropanecarboxamide] |
| 200 to 1000 | CC(=O)Nc1c[nH]c2ccc(OCC[C@H]3CC[C@@H](C(F)(F)F)CC3)cc12 (single isomer, unassigned) [Compound 454, N-(5-(2-(cis-4-(trifluoromethyl)cyclohexyl)ethoxy)-1H-indol-3-yl)acetamide] |
| 40 to 200 | CC1(C(=O)Nc2c[nH]c3ccc(OCCc4ccc(C(F)(F)F)cc4)cc23)CC1 [Compound 251, 1-methyl-N-(5-(4-(trifluoromethyl)phenethoxy)-1H-indol-3-yl)cyclopropane-1-carboxamide] |
| 200 to 1000 | 3-hydroxy-N-(5-(2-((3aR,5r,6aS)-2-(2,2,2-trifluoroethyl)octahydrocyclopenta[c]pyrrol-5-yl)ethoxy)-1H-indol-3-yl)cyclobutane-1-carboxamide [Compound 347] |
